The record followed here is patent publication US11584725B2, “Pyrazinoic acid conjugates and hybrid conjugates” (Augusta University Research Institute, Inc., priority 2018, dated 2023).

Assay type in all cases: cell-based
In one experiment the test system is Mycobacterium fortuitum. Description: Anti-mycobacterial MIC. Particulars: for MIC: Mycolicibacterium fortuitum.
The test system of another experiment is Mycobacterium marinum. Description: Anti-mycobacterial MIC. Particulars: read-out: Minimum inhibitory concentration (MIC), observed.
In a further experiment the test system is Mycobacterium bovis. Description: microbe, parasite or virus in culture. Particulars: for MIC lower than that of the standard reference (INH): Mycobacterium bovis, MIC vs INH; for MIC: Mycobacterium tuberculosis variant bovis, read-out: Minimum inhibitory concentration (MIC).
The subject of the next experiment is Klebsiella pneumonia. The experiment can be described thus: Antibacterial MIC, aerobic bacteria, standard technique. Conditions: Klebsiella pneumoniae, read-out: Minimum inhibitory concentration (MIC). The text has this:
(§1) Antibacterial properties were investigated for the synthesized compounds against a variety of Gram-positive (Staphylococcus aureus, Enterococcus faecalis) and Gram-negative (Klebsiella pneumonia, Proteus vulgaris, Pseudomonas aeruginosa) bacteria utilizing the standard technique.

In a further experiment the test system is Proteus vulgaris. The description is as above. Particulars: read-out: Minimum inhibitory concentration (MIC).
Description: as §1

The subject of another experiment is Enterococcus faecalis. Described as above. Particulars: read-out: Minimum inhibitory concentration (MIC).
Description: as §1

Another experiment deals with Staphylococcus aureus. Described as above. Particulars: read-out: Minimum inhibitory concentration (MIC).
Description: as §1

Setting [1] is: read-out: Minimum inhibitory concentration (MIC).
[2] abbreviates: read-out: Minimum inhibitory concentration (MIC), observed.

Values after ≈ are worked out from the molar mass of the structure shown. Values joined by “and” are separate entries in the source; they are usually repeats but may differ in a detail not shown here. Equal values may be shown once. Read-outs that look alike come from different tables or passages of the source.

In the case of `CC(C)[C@H](NC(=O)c1cnccn1)C(=O)O`, the MIC in the experiment with Mycobacterium fortuitum (setting [1]) was above 20 mg/mL.

In the case of `CSCC[C@H](NC(=O)c1cnccn1)C(=O)O`, the MIC in the experiment with Mycobacterium fortuitum (setting [1]) was above 20 mg/mL.

On to `O=C(N[C@@H](Cc1ccccc1)C(=O)O)c1cnccn1`, for which the MIC in the experiment with Mycobacterium fortuitum (setting [1]) was above 20 mg/mL.

Regarding `O=C(NC(Cc1ccccc1)C(=O)O)c1cnccn1` (stereo not shown), in the experiment with Mycobacterium fortuitum (setting [1]), the MIC was above 20 mg/mL.

Take `O=C(N[C@@H](Cc1c[nH]c2ccccc12)C(=O)O)c1cnccn1`: in the experiment with Mycobacterium fortuitum (setting [1]), the MIC is above 20 mg/mL.

Consider `O=C(NNC(=O)C(Cc1ccccc1)NC(=O)c1cnccn1)c1ccncc1` (stereo not shown), for which, in the experiment on Mycobacterium fortuitum (setting [1]), the MIC was 10 mg/mL.

Take `O=C(NNC(=O)C(Cc1ccccc1)NC(=O)c1cnccn1)c1ccncc1` (racemic) [PZA-DL-Phe-INH]: in the experiment with Mycobacterium fortuitum (MIC vs INH), the “Potency relative to the standard reference (INH)” value is listed as “about 5.6 folds”.

With `NNC(=O)c1ccncc1` [INH, isoniazide, reference compound], the MIC with Mycobacterium marinum was determined as 72.9 mM (≈ 10 mg/mL).

As to `O=C(NNC(=O)c1ccncc1)c1ccncc1` [Iso-INH], the figures for the MIC with Mycobacterium marinum and in the experiment on Mycobacterium fortuitum (setting [2]) were 82.6 mM (≈ 20 mg/mL) and 82.6 mM, respectively. Also, the “MIC lower than that of the standard reference (INH)” value in the experiment on Mycobacterium bovis was “about 1.8 folds”.

With `NC(=O)c1cnccn1` [PZA, Pyrazinamide, reference compound], the values for the MIC in the experiment on Mycobacterium marinum and in the experiment with Mycobacterium fortuitum (setting [2]) were 81.2 mM (≈ 10 mg/mL) and 81.2 mM, respectively.

Take `O=C(NNC(=O)c1cnccn1)c1ccncc1` [PZA-INH]: the MIC in the experiment with Mycobacterium marinum was 41.1 mM (≈ 10 mg/mL); in the experiment on Mycobacterium fortuitum (setting [2]), 41.1 mM. The “MIC lower than that of the standard reference (INH)” value in the experiment on Mycobacterium bovis was “about 1.8 folds”.

As for `CCC(C)C(NC(=O)c1cnccn1)C(=O)NNC(=O)c1ccncc1` (stereo not shown) [PZA-Ile-INH], the figures for the MIC with Mycobacterium marinum and in the experiment with Mycobacterium fortuitum (setting [2]) were 56.1 mM (≈ 20 mg/mL) and 56.1 mM, respectively.

With `CC(C)C[C@H](NC(=O)c1cnccn1)C(=O)NNC(=O)c1ccncc1` [PZA-Leu-INH], the MIC in the experiment on Mycobacterium marinum amounted to 56.1 mM (≈ 20 mg/mL); in the experiment on Mycobacterium fortuitum (setting [2]), 56.1 mM.

`CC(C)C[C@H](NC(=O)c1cnccn1)C(=O)O` [PZA-Leu-OH]: the figures for the MIC in the experiment with Mycobacterium marinum and in the experiment on Mycobacterium fortuitum (setting [2]) were 84.3 mM (≈ 20 mg/mL) and 84.3 mM, respectively.

Consider `CSCC[C@H](NC(=O)c1cnccn1)C(=O)NNC(=O)c1ccncc1` [PZA-Met-INH], for which the values for the MIC in the experiment with Mycobacterium marinum and in the experiment with Mycobacterium fortuitum (setting [2]) were 26.7 mM (≈ 10 mg/mL) and 53.4 mM, respectively.

In the case of `O=C(NNC(=O)[C@H](Cc1ccccc1)NC(=O)c1cnccn1)c1ccncc1` [PZA-Phe-INH], the MIC came to 51.2 mM (≈ 20 mg/mL) in the experiment on Mycobacterium marinum and 51.2 mM with Mycobacterium fortuitum (setting [2]).

Take `O=C(NNC(=O)[C@H](Cc1c[nH]c2ccccc12)NC(=O)c1cnccn1)c1ccncc1` [PZA-Trp-INH]: the MIC is 46.6 mM (≈ 20 mg/mL) with Mycobacterium marinum and 46.6 mM in the experiment on Mycobacterium fortuitum (setting [2]).

Turning to `CC(C)[C@H](NC(=O)c1cnccn1)C(=O)NNC(=O)c1ccncc1` [PZA-Val-INH], the MIC with Mycobacterium marinum was found to be 58.4 mM (≈ 20 mg/mL); with Mycobacterium fortuitum (setting [2]), 58.4 mM.

Take `CCC(C)C(NC(=O)c1cnccn1)C(=O)O` (stereo not shown) [drawing 30]: the values for the MIC in the experiment with Klebsiella pneumonia, in the experiment on Proteus vulgaris and in the experiment on Enterococcus faecalis were 0.008 mg/mL (≈ 33.7 µM), 0.06 µg/mL (≈ 0.253 µM) and 0.03 µg/mL, respectively.

`CC(C)[C@H](NC(=O)c1cnccn1)C(=O)NNC(=O)c1ccncc1` [drawing 36]: the MIC in the experiment on Enterococcus faecalis came out at 0.00035 mM.

Turning to `CCC(C)C(NC(=O)c1cnccn1)C(=O)NNC(=O)c1ccncc1` (stereo not shown) [drawing 37], the MIC in the experiment on Klebsiella pneumonia was 0.008 mg/mL (≈ 22.4 µM); in the experiment with Proteus vulgaris it was 0.06 µg/mL (≈ 0.168 µM); in the experiment on Enterococcus faecalis, 0.03 µg/mL and 0.08 µM.

As to `O=C(NNC(=O)[C@H](Cc1c[nH]c2ccccc12)NC(=O)c1cnccn1)c1ccncc1` [drawing 41], in the experiment with Staphylococcus aureus, the MIC was found to be 3.73 mM (≈ 1.6 mg/mL).

In the case of `NC(=O)c1cnccn1` [drawing 44], in the experiment with Mycobacterium fortuitum (setting [1]), the MIC was 10 mg/mL.

Take `NNC(=O)c1ccncc1` [drawing 45]: the MIC in the experiment on Mycobacterium fortuitum (setting [1]) was 20 mg/mL.

Regarding `CC(C)C[C@H](NC(=O)c1cnccn1)C(=O)O` [drawing 46], in the experiment with Mycobacterium fortuitum (setting [1]), the MIC came to 20 mg/mL.

As for `CCC(C)C(NC(=O)c1cnccn1)C(=O)O` (stereo not shown) [drawing 48], the MIC in the experiment on Mycobacterium bovis and in the experiment with Mycobacterium fortuitum (setting [1]) was above 20 mg/mL in each case.

Take `CC(C)C[C@H](NC(=O)c1cnccn1)C(=O)NNC(=O)c1ccncc1` [drawing 53]: the MIC in the experiment on Mycobacterium fortuitum (setting [1]) is 20 mg/mL.

Take `CC(C)[C@H](NC(=O)c1cnccn1)C(=O)NNC(=O)c1ccncc1` [drawing 54]: in the experiment on Mycobacterium fortuitum (setting [1]), the MIC stood at 20 mg/mL.

Consider `CCC(C)C(NC(=O)c1cnccn1)C(=O)NNC(=O)c1ccncc1` (stereo not shown) [drawing 55], for which the MIC with Mycobacterium bovis was above 20 mg/mL; with Mycobacterium fortuitum (setting [1]) it was 20 mg/mL.

`CSCC[C@H](NC(=O)c1cnccn1)C(=O)NNC(=O)c1ccncc1` [drawing 56]: in the experiment with Mycobacterium fortuitum (setting [1]), the MIC stood at 20 mg/mL.

As for `O=C(NNC(=O)[C@H](Cc1ccccc1)NC(=O)c1cnccn1)c1ccncc1` [drawing 57], the MIC with Mycobacterium fortuitum (setting [1]) stood at 20 mg/mL.

As to `O=C(NNC(=O)[C@H](Cc1c[nH]c2ccccc12)NC(=O)c1cnccn1)c1ccncc1` [drawing 59], the MIC in the experiment on Mycobacterium fortuitum (setting [1]) came out at 20 mg/mL.

As for `O=C(NNC(=O)c1cnccn1)c1ccncc1` [drawing 60], the MIC in the experiment with Mycobacterium fortuitum (setting [1]) was 10 mg/mL.

On to `O=C(NNC(=O)c1ccncc1)c1ccncc1` [drawing 61], for which the MIC in the experiment on Mycobacterium fortuitum (setting [1]) was 20 mg/mL.
